US9802960B2 (MILLENNIUM PHARMACEUTICALS, INC., priority 2014, dated 2017)

Target: Human VPS34 (Homo sapiens (Human), UniProt Q8NEB9)
Test: Human VPS34 enzyme assay (Adapta TR-FRET)
Type: biochemical
Conditions: compound concentration 1.11 μM; for inhibition at 1.11 µM: read-out: Percent Inhibition

Chain of Human VPS34 (Q8NEB9 whole entry): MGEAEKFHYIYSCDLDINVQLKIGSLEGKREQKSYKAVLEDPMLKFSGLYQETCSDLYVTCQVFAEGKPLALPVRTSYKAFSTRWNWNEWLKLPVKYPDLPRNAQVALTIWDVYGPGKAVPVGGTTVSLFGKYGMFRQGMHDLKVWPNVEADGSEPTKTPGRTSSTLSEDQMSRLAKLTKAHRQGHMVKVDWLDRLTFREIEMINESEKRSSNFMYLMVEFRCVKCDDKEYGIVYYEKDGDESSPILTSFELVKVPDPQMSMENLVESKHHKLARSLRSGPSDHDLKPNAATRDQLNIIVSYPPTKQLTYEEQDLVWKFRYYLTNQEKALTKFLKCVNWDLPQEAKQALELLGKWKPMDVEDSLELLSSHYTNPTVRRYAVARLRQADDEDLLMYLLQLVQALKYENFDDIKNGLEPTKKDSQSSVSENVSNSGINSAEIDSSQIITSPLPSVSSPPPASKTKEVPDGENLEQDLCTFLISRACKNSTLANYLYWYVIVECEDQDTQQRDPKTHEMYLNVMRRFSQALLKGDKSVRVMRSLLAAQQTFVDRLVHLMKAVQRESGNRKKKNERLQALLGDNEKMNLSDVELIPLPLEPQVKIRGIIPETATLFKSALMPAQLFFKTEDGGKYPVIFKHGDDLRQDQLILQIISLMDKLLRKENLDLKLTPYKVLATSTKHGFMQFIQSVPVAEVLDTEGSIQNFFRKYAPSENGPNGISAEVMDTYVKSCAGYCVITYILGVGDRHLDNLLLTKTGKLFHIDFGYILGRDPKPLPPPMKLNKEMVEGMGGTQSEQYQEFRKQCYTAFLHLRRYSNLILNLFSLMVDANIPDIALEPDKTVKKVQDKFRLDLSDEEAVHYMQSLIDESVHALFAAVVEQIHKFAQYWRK

Structure (SMILES) | inhibition at 1.11 µM | Percent Inhibition
CC(=O)Nc1cc(-c2cnc(C)c(N3CCNS3(=O)=O)c2)ccn1 [Compound I-352, N-[5-(1,1-dioxido-1,2,5-thiadiazolidin-2-yl)-6-methyl-3,4′-bipyridin-2′-yl]acetamide] | 92% | –
Cc1c(-c2ccnc(Nc3ccnc(C4CC4)n3)c2)cnc(Cl)c1N [Compound I-355, 6-chloro-N~2~′-(2-cyclopropylpyrimidin-4-yl)-4-methyl-3,4′-bipyridine-2′,5-diamine] | 91% | –
CC(=O)Nc1cc(-c2cnc(C)c(NS(=O)(=O)c3ccc(C#N)cc3F)c2)ccn1 [Compound I-356, N-(5-{[(4-cyano-2-fluorophenyl)sulfonyl]amino}-6-methyl-3,4′-bipyridin-2′-yl)acetamide] | > 99% | –
CC(=O)Nc1cc(-c2cnc(C)c(N3CC(NCc4ccccc4)CS3(=O)=O)c2)ccn1 (centres unmarked) [Compound I-357, N-{5-[4-(benzylamino)-1,1-dioxidoisothiazolidin-2-yl]-6-methyl-3,4′-bipyridin-2′-yl}acetamide] | > 99% | –
CC(=O)Nc1cc(-c2cnc(C)c(OS(=O)(=O)N(C)C)c2)ccn1 [Compound I-359, 2′-acetamido-6-methyl-3,4′-bipyridin-5-yl dimethylsulfamate] | > 99% | –
CC(=O)Nc1cc(-c2cnc(Cl)c(NS(=O)(=O)c3ccc(C#N)cc3Cl)c2C)ccn1 [Compound I-362, N-(6-chloro-5-{[(2-chloro-4-cyanophenyl)sulfonyl]amino}-4-methyl-3,4′-bipyridin-2′-yl)acetamide] | 95% | –
Cc1nccc(Nc2cc(-c3cnc(C)c(OCc4ccccc4)c3)ccn2)n1 [Compound I-363, 5-(benzyloxy)-6-methyl-N-(2-methylpyrimidin-4-yl)-3,4′-bipyridin-2′-amine] | 83% | –
CC(=O)Nc1cc(-c2cncc(S(=O)(=O)N(C)c3ccccc3)c2)ccn1 [Compound I-365, N-{5-[methyl(phenyl)sulfamoyl]-3,4′-bipyridin-2′-yl}acetamide] | > 99% | –
CC(=O)Nc1cc(-c2cnc(Cl)c(NS(=O)(=O)N(C)C)c2)ccn1 [Compound I-372, N-{6-chloro-5-[(dimethylsulfamoyl)amino]-3,4′-bipyridin-2′-yl}acetamide] | – | >99%
CCCCS(=O)(=O)Nc1cc(-c2ccnc(NC(C)=O)c2)cnc1C [Compound I-373, N-{5-[(butylsulfonyl)amino]-6-methyl-3,4′-bipyridin-2′-yl}acetamide] | > 99% | –
CC(=O)Nc1cc(-c2cnc(C)c(NS(=O)(=O)N3CCC(F)(F)CC3)c2)ccn1 [Compound I-374, N-(5-{[(4,4-difluoropiperidin-1-yl)sulfonyl]amino}-6-methyl-3,4′-bipyridin-2′-yl)acetamide] | > 99% | –
COc1nc(C)nc(Nc2cc(-c3cnc(C)c(NS(=O)(=O)c4ccc(F)cc4F)c3)ccn2)n1 [Compound I-375, 2,4-difluoro-N-{2′-[(4-methoxy-6-methyl-1,3,5-triazin-2-yl)amino]-6-methyl-3,4′-bipyridin-5-yl}benzenesulfonamide] | 99% | –
CC(=O)Nc1cc(-c2cnc3c(c2)S(=O)(=O)N(C24CC(C2)C4)CCO3)ccn1 [Compound I-376, N-{4-[2-(bicyclo[1.1.1]pent-1-yl)-1,1-dioxido-3,4-dihydro-2H-pyrido[2,3-b][1,4,5]oxathiazepin-8-yl]pyridin-2-yl}acetamide] | 94% | –
Cc1nccc(Nc2cc(-c3cnc4c(c3)C(=O)N(Cc3ccccc3)CC4)ccn2)n1 [Compound I-378, 6-benzyl-3-[2-[(2-methylpyrimidin-4-yl)amino]-4-pyridyl]-7,8-dihydro-1,6-naphthyridin-5-one] | 66% | –
Cc1nccc(Nc2cc(-c3cnc(C)c(OCCN(C)C)c3)ccn2)n1 [Compound I-379, 5-[2-(dimethylamino)ethoxy]-6-methyl-N-(2-methylpyrimidin-4-yl)-3,4′-bipyridin-2′-amine] | 47% | –
CC(=O)Nc1cc(-c2cnc(C#N)c(N3CCCCC3C)c2)ccn1 (centres unmarked) [Compound I-380, N-[6-cyano-5-(2-methylpiperidin-1-yl)-3,4′-bipyridin-2′-yl]acetamide] | 95% | –
Cc1nccc(Nc2cc(-c3cnc(Cl)c(NS(=O)(=O)N(C)C)c3C)ccn2)n1 [Compound I-381, N′-{6-chloro-4-methyl-2′-[(2-methylpyrimidin-4-yl)amino]-3,4′-bipyridin-5-yl}-N,N-dimethylsulfuric diamide] | > 99% | –
CCOC(=O)Nc1cc(-c2cnc(Cl)c(NS(=O)(=O)c3ccc(F)cc3F)c2C)ccn1 [Compound I-383, ethyl (6-chloro-5-{[(2,4-difluorophenyl)sulfonyl]amino}-4-methyl-3,4′-bipyridin-2′-yl)carbamate] | 91% | –
CC(=O)Nc1cc(-c2cncc(S(=O)(=O)N3CC(F)(F)C3)c2)ccn1 [Compound I-391, N-{5-[(3,3-difluoroazetidin-1-yl)sulfonyl]-3,4′-bipyridin-2′-yl}acetamide] | > 99% | –

More lines, now with the values ahead:

inhibition at 1.11 µM | Percent Inhibition | Structure (SMILES)
> 99% | – | CC(=O)Nc1cc(-c2cnc(C)c(S(=O)(=O)Nc3ccc(F)cc3F)c2)ccn1 [Compound I-353, N-(5-(N-(2,4-difluorophenyl)sulfamoyl)-6-methyl-[3,4′-bipyridin]-2′-yl)acetamide]
98% | – | CC(=O)Nc1cc(-c2cnc(Cl)c(NS(=O)(=O)c3c(Cl)cccc3Cl)c2C)ccn1 [Compound I-354, N-(6-chloro-5-{[(2,6-dichlorophenyl)sulfonyl]amino}-4-methyl-3,4′-bipyridin-2′-yl)acetamide]
> 99% | – | COc1ncc(-c2ccnc(NC(C)=O)c2)cc1S(=O)(=O)Nc1cc(F)ccc1F [Compound I-358, N-{5-[(2,5-difluorophenyl)sulfamoyl]-6-methoxy-3,4′-bipyridin-2′-yl}acetamide]
90% | – | Cc1c(-c2ccnc(Nc3ccnc(C4CC4)n3)c2)cnc(Cl)c1C(=O)N1CCC1 [Compound I-361, azetidin-1-yl(6-chloro-2′-((2-cyclopropylpyrimidin-4-yl)amino)-4-methyl-[3,4′-bipyridin]-5-yl)methanone]
> 99% | – | CCOC(=O)Nc1cc(-c2cnc(C)c(NS(=O)(=O)N(C)C)c2)ccn1 [Compound I-364, ethyl {5-[(dimethylsulfamoyl)amino]-6-methyl-3,4′-bipyridin-2′-yl}carbamate]
> 99% | – | CC(=O)Nc1cc(-c2cnc(Cl)c(S(=O)(=O)NC34CC(C3)C4)c2)ccn1 [Compound I-366, N-[5-(bicyclo[1.1.1]pent-1-ylsulfamoyl)-6-chloro-3,4′-bipyridin-2′-yl]acetamide]
76% | – | CCNC(=O)Nc1cc(-c2ccnc(Nc3ccnc(C)n3)c2)cnc1C [Compound I-367, 1-ethyl-3-{6-methyl-2′-[(2-methylpyrimidin-4-yl)amino]-3,4′-bipyridin-5-yl}urea]
96% | – | Cc1ncc(-c2ccnc(Nc3ccnc(C4CC4)n3)c2)cc1NC(=O)N1CC(F)(F)C1 [Compound I-368, N-(2′-((2-cyclopropylpyrimidin-4-yl)amino)-6-methyl-[3,4′-bipyridin]-5-yl)-3,3-difluoroazetidine-1-carboxamide]
97% | – | Cc1c(-c2ccnc(Nc3ccnc(C4CC4)n3)c2)cnc(Cl)c1C(=O)O [Compound I-369, 6-chloro-2′-((2-cyclopropylpyrimidin-4-yl)amino)-4-methyl-[3,4′-bipyridine]-5-carboxylic acid]
> 99% | – | CCN(CC)S(=O)(=O)c1cc(-c2ccnc(NC(C)=O)c2)cnc1C [Compound I-370, N-[5-(diethylsulfamoyl)-6-methyl-3,4′-bipyridin-2′-yl]acetamide]
– | >99% | CC(=O)Nc1cc(-c2ccnc(Nc3ccnc(C4CC4)n3)c2)cn2nccc12 [Compound I-371, N-(6-{2-[(2-cyclopropylpyrimidin-4-yl)amino]pyridin-4-yl}pyrazolo[1,5-a]pyridin-4-yl)acetamide]
95% | – | CC(=O)Nc1cc(-c2cnc(C)c(NS(=O)(=O)c3cccc(F)c3F)c2)ccn1 [Compound I-377, N-(5-{[(2,3-difluorophenyl)sulfonyl]amino}-6-methyl-3,4′-bipyridin-2′-yl)acetamide]
> 99% | – | Cc1nc(Nc2cc(-c3cnc(C)c(NS(=O)(=O)c4ccc(F)cc4F)c3)ccn2)nc(C2CC2)n1 [Compound I-382, N-{2′-[(4-cyclopropyl-6-methyl-1,3,5-triazin-2-yl)amino]-6-methyl-3,4′-bipyridin-5-yl}-2,4-difluorobenzene sulfonamide]
73% | – | CC(=O)Nc1cc(-c2cncc(N(CCO)S(=O)(=O)c3ccc(F)cc3F)c2)ccn1 [Compound I-384, N-(5-{[(2,4-difluorophenyl)sulfonyl](2-hydroxyethyl)amino}-3,4′-bipyridin-2′-yl)acetamide]
96% | – | CC(=O)Nc1cc(-c2cnc(C)c(N3CCN(C)S3(=O)=O)c2)ccn1 [Compound I-386, N-[6-methyl-5-(5-methyl-1,1-dioxido-1,2,5-thiadiazolidin-2-yl)-3,4′-bipyridin-2′-yl]acetamide]
> 99% | – | CC(=O)Nc1cc(-c2cnc(C)c(N3CCCNS3(=O)=O)c2)ccn1 [Compound I-387, N-[5-(1,1-dioxido-1,2,6-thiadiazinan-2-yl)-6-methyl-3,4′-bipyridin-2′-yl]acetamide]
98% | – | Cc1ncc(-c2ccnc(NC(=O)C3CC3)c2)cc1C(=O)N(C)C12CC(C1)C2 [Compound I-388, N-(bicyclo[1.1.1]pent-1-yl)-2′-[(cyclopropylcarbonyl)amino]-N,6-dimethyl-3,4′-bipyridine-5-carboxamide]
95% | – | CCOC(=O)Nc1cc(-c2cnc(C)c(NS(=O)(=O)c3ccc(F)cc3F)c2)ccn1 [Compound I-389, ethyl (5-{[(2,4-difluorophenyl)sulfonyl]amino}-6-methyl-3,4′-bipyridin-2′-yl)carbamate]
98% | – | Cc1ccc(Oc2cc(-c3ccnc(Nc4ccnc(C)n4)c3)cnc2C)nc1 [Compound I-390, 6-methyl-5-[(5-methylpyridin-2-yl)oxy]-N-(2-methylpyrimidin-4-yl)-3,4′-bipyridin-2′-amine]
